Reference: patent publication US9802897B2, “Amidopyridinol derivative or pharmaceutically acceptable salt thereof and pharmaceutical composition comprising same as active component” (Research Cooperation Foundation of Yeungnam University, priority 2013, dated 2017)
Marks after values point to notes of the source that are not given here. Non-standard residues stand in square brackets, D forms with d. Residues, ends and D or L forms follow the SMILES beside them. *: point of attachment. Sta = CC(C)C[C@H](N)[C@@H](O)CC(=O)O; Isovaleryl = CC(C)CC(=O)*; Cbz = O=C(OCc1ccccc1)*; CH2F = FC*

Columns and labels:
MDA-MB-231 cells = test: Transwell invasion assay of MDA-MB-231 breast cancer cells; type: cell-based; conditions: for invasion of MDA-MB-231 cells (in words): cathepsin inhibitors vs cells not treated with inhibitors
Protocol: The invasion assay was performed by using the transwell insert (BD FALCON, Bedford, USA) equipped with a 8 μm pore-sized filter. An upper part of the transwell insert filter was coated with 20 μl of matrigel (1 mg/ml) while a bottom part of the same was coated with 30 μl of type I collagen (0.5 mg/ml). The MDA-MB-231 cells (5×10^5 cells/100 μl) were added to the insert chamber, and then, each inhibitor was also added thereto. To induce invasion of the cells, a medium supplemented with 5% FBS was added to each well of the bottom chamber to allow a reaction at a temperature of 37° C. in a cell incubator. 18 hours later, the cells remained after removing the solution in the insert chamber were removed by using a cotton swab, whereas cells at the bottom of the membrane were fixed with methanol and stained with hematoxylin and eosin. The cells present at the membrane were observed through a microscope, and the number of the cells was counted in the selected 5 fields at the resolution of 200×.
According to the same manner as in Experimental Example 7, inhibitory effects of the amidopyridinol derivatives synthesized in Examples above on invasion of breast cancer cells, e.g., MDA-MB-231, were reviewed. Here, to compare with, inhibitory effects of aminopyridinol derivatives, e.g., 6-amino-2,4,5-trimethylpyridine-3-ol (BJ-1101) and 6-diphenylamino-2,4,5-trimethylpyridine-3-ol (BJ-1201), on invasion of breast cancer cells, e.g., MDA-MB-231, were reviewed.

HT-29 cells / U937 cells = test: TNF-α-induced adhesion of HT-29 intestinal epithelial cells and U937 mononuclear cells; type: cell-based, human; conditions: 1 μM, pre-treated 1 hour, TNF-α 10 ng/ml; for inhibition at 1 µM: Homo sapiens, read-out: Inhibitory rates (%)
Protocol: HT-29 cells were cultured in a 24-well plate at a concentration of […] cells/cm^2, and meanwhile, amidopyridinol compounds 8a to 8z were pre-treated for 1 hour at each concentration in a serum-free medium supplemented only with 1% PS. Next, 10 ng/ml of TNF-α was treated therewith to allow a reaction at a temperature of 37° C. for 3 hours. After the completion of the reaction, the medium of the HT-29 cells was removed, and then, the HT-29 cells were washed with PBS once. Afterwards, U937 cells, which were treated and reacted with 10 μg/mL of BCECF-AM at a temperature of 37° C. for 30 minutes, were allowed to react with the HT-29 cells at temperature of 37° C. for 1 hour. Then, to remove U937 cells that were not adhered to the HT-29 cells, the reacted cells were washed with PBS twice. In terms of cell dissolution, 0.1% Triton X-100 in 0.1M Tris was allowed to react with the cells for 30 minutes at room temperature, and then, the cells were subjected to quantify by measuring fluorescence thereof using the Fluostar optima microplate reader (BMG Labtechnologies, Germany).

[1] = test system: VEGF-induced angiogenesis in chicken chorioallantoic membrane (CAM); test: CAM analysis of VEGF-induced angiogenesis; type: in vivo; conditions: VEGF (20 ng/CAM) + Compound (0.01 nmol/CAM), number of blood vessels after 3 days; for inhibition in vivo at 0.01 nmol/CAM: Gallus gallus, 72 h, read-out: Inhibitory rates (%)
Protocol: To confirm inhibitory effects on angiogenesis through in vivo experiments, the chorioallantoic membrane (CAM) analysis was carried out (refer to Nguyen M et al., Microvascular Res., 47, pp 31-40, 1994). A fertilized egg of a chicken was cultured in conditions maintaining a temperature of 37° C. and relative humidity of 55%. On the 10th day of the culturing, a first small hole was made on an air sac part using a hypodermic needle (Green Cross Medical Corp., Korea), and then, a second hole was made on a flat part of the fertilized egg to make a window thereon. Air was removed through the first hole, i.e., the air sac part, and accordingly, the CAM was separated from the shell of the fertilized egg. Then, a grinding wheel (Multipro 395JA, Dremel, Mexico) was used to cut the air sac part, thereby making a window thereon. Next, the whatman filter disk #1 (Whatman Company, USA) was treated with 3 mg/mL of cortisone acetate, dried, and then, wet by VEGF at a concentration of 20 ng/CAM. The filter disk was placed on blood vessels through the window, and then, compounds prepared according to Examples above were each dissolved in DMSO, diluted with PBS, and then, treated for each concentration. After 3 days of treating the compounds, the CAM part on which the filter disk was placed was isolated, and then, washed with PBS. The Stemi SV6 stereomicroscope (Carl Zeiss, Germany) and the Image-Pro Plus software (Media Cybernetics; Silver Spring, Md., USA) were used to capture images of the CAM part, so as to measure the number of the blood vessels and to analyze data obtained therefrom.

A549 lung cancer cells = test: CAM inoculated with A549 lung cancer cells: angiogenesis and tumor growth; type: in vivo, chicken; conditions: A549 on CAM, 5 days
Protocol: To confirm inhibitory effects on angiogenesis through in vivo experiments, the CAM analysis was carried out (refer to Nguyen M et al., Microvascular Res., 47, pp 31-40, 1994). A fertilized egg of a chicken was cultured in conditions maintaining a temperature of 37° C. and relative humidity of 55%. On the 9th day of the culturing, a first small hole was made on an air sac part using a hypodermic needle (Green Cross Medical Corp., Korea), and then, a second hole was made on a flat part of the fertilized egg to make a window thereon. Air was removed through the first hole, i.e., the air sac part, and accordingly, the CAM was separated from the shell of the fertilized egg. Then, a grinding wheel (Multipro 395JA, Dremel, Mexico) was used to cut the air sac part, thereby making a window thereon. Meanwhile, A549 lung cancer cells were mixed with matrigel at a ratio of 1:1, and then, the mixture was treated with Compounds 8a, 8b, and 8g, respectively, followed by being inoculated at a density of 1.5×10^6 cells/CAM.
After 5 days of the inoculation, the CAM part on which tumors were formed was isolated, and then, washed with PBS. The Stemi SV6 stereomicroscope (Carl Zeiss, Germany) and the Image-Pro Plus software (Media Cybernetics; Silver Spring, Md., USA) were used to capture images of the CAM part, so as to measure the number of the blood vessels and to analyze data obtained therefrom.

[2] = 1 μM, MDA-MB-231 invasion, 5% FBS, 18 hours

CCCNC(=O)[C@H]1O[C@@H]1C(=O)N[C@H](C(=O)N1CCC[C@H]1C(=O)OC)[C@@H](C)CC [CA-074 Me]
Inhibition rates (%) (MDA-MB-231 cells; 1 nM, MDA-MB-231 invasion, 5% FBS, 18 hours): 19.73 ± 2.31 %
Inhibition rates (%) (MDA-MB-231 cells; 5 nM, MDA-MB-231 invasion, 5% FBS, 18 hours): 34.26 ± 2.30 %
Inhibition rates (%) (MDA-MB-231 cells; 25 nM, MDA-MB-231 invasion, 5% FBS, 18 hours): 44.45 ± 1.43 %
invasion of MDA-MB-231 cells (in words) (MDA-MB-231 cells): decreased invasion of the cells

Cc1nc(NC(=O)CC(C)C)c(C)c(C)c1O [Compound 8e, N-(5-hydroxy-3,4,6-trimethylpyridine-2-yl)-3-methylbutanamide]
inhibition at 1 µM (HT-29 cells / U937 cells): 64.2%
inhibition in vivo at 0.01 nmol/CAM [1]: 75.6 ± 8.9%

Cc1nc(NC(=O)C2CCCCC2)c(C)c(C)c1O [Compound 8h, N-(5-hydroxy-3,4,6-trimethylpyridine-2-yl)cyclohexane carboxamide]
inhibition at 1 µM (HT-29 cells / U937 cells): 64.5%
inhibition in vivo at 0.01 nmol/CAM [1]: 76.3 ± 7.2%

Cc1nc(NC(=O)Cc2ccccc2)c(C)c(C)c1O [Compound 8i, N-(5-hydroxy-3,4,6-trimethylpyridine-2-yl)-2-penylacetamide]
Inhibitory rates (%) (HT-29 cells / U937 cells): 56.6* %
Inhibitory rates (%) [1]: 69.6 ± 11.0 %

Cc1nc(NC(=O)c2ccccc2)c(C)c(C)c1O [Compound 8k, N-(5-hydroxy-3,4,6-trimethylpyridine-2-yl)benzamide]
inhibition at 1 µM (HT-29 cells / U937 cells): 18.5%
inhibition in vivo at 0.01 nmol/CAM [1]: 77.3 ± 13.1%

COc1ccc(C(=O)Nc2nc(C)c(O)c(C)c2C)cc1 [Compound 8m, N-(5-hydroxy-3,4,6-trimethylpyridine-2-yl)-4-methoxybenzamide]
inhibition at 1 µM (HT-29 cells / U937 cells): 13.9%
inhibition in vivo at 0.01 nmol/CAM [1]: 69.7 ± 4.5%

Cc1nc(NC(=O)c2ccc3c(c2)OCO3)c(C)c(C)c1O [Compound 8o, N-(5-hydroxy-3,4,6-trimethylpyridine-2-yl)benzo[d][1,3]dioxol-5-carboxamide]
inhibition at 1 µM (HT-29 cells / U937 cells): 40.2%
inhibition in vivo at 0.01 nmol/CAM [1]: 64.8 ± 17.4%

Cc1nc(NC(=O)c2cccc(O)c2)c(C)c(C)c1O [Compound 8v, 3-hydroxy-N-(5-hydroxy-3,4,6-trimethylpyridine-2-yl)benzamide]
inhibition at 1 µM (HT-29 cells / U937 cells): 54.1%

Cc1nc(NC(=O)CC(C)CC(C)(C)C)c(C)c(C)c1O (centres unmarked) [Compound 8w, N-(5-hydroxy-3,4,6-trimethylpyridine-2-yl)-3,5,5-trimethylhexanamide]
inhibition at 1 µM (HT-29 cells / U937 cells): 54.5%

Cc1nc(NC(=O)Cc2ccc(Cl)cc2)c(C)c(C)c1O [Compound 8x, 2-(4-chlorophenyl)-N-(5-hydroxy-3,4,6-trimethylpyridine-2-yl)acetamide]
inhibition at 1 µM (HT-29 cells / U937 cells): 41.5%

Cc1nc(NC(=O)C(Cl)Cl)c(C)c(C)c1O [Compound 8y, 2,2-dichloro-N-(5-hydroxy-3,4,6-trimethylpyridine-2-yl)acetamide]
inhibition at 1 µM (HT-29 cells / U937 cells): 60.6%

Cc1nc(NC(=O)C=Cc2ccccc2)c(C)c(C)c1O [Compound 8z, N-(5-hydroxy-3,4,6-trimethylpyridine-2-yl)cinnamide]
Inhibitory rates (%) (HT-29 cells / U937 cells): 25.2%

CC(C)(F)C[C@H](N[C@@H](c1ccc(-c2ccc(S(C)(=O)=O)cc2)cc1)C(F)(F)F)C(=O)NC1(C#N)CC1 [Odanacatib]
inhibition at 0.04 µM (MDA-MB-231 cells; Homo sapiens, 0.04 μM, MDA-MB-231 invasion, 5% FBS, 18 hours, read-out: Inhibition rates (%)): 14.9 ± 4.14%
inhibition at 0.2 µM (MDA-MB-231 cells; Homo sapiens, 0.2 μM, MDA-MB-231 invasion, 5% FBS, 18 hours, read-out: Inhibition rates (%)): 19.9 ± 3.77%
inhibition at 1 µM (MDA-MB-231 cells; Homo sapiens, 1 μM, MDA-MB-231 invasion, 5% FBS, 18 hours, read-out: Inhibition rates (%)): 22.3 ± 3.7%

CC(C)CC(=O)N[C@H](C(=O)N[C@H](C(=O)N[C@@H](CC(C)C)[C@@H](O)CC(=O)N[C@@H](C)C(=O)N[C@@H](CC(C)C)[C@@H](O)CC(=O)O)C(C)C)C(C)C [Pepstatin A] (Isovaleryl-VV[Sta]A[Sta]-OH)
Inhibition rates (%) (MDA-MB-231 cells; [2]): 3.42 ± 0.42%
Inhibition rates (%) (MDA-MB-231 cells; 5 μM, MDA-MB-231 invasion, 5% FBS, 18 hours): 4.04 ± 0.33%
Inhibition rates (%) (MDA-MB-231 cells; 25 μM, MDA-MB-231 invasion, 5% FBS, 18 hours): 5.54 ± 0.77%

CN(C)c1ccc(/C=C2\C(=O)Nc3ccccc32)cc1 [SU4312, reference compound]
Inhibition rates of angiogenesis (%) (A549 lung cancer cells; 0.01 pmol/CAM): 20.8 ± 1.4 %
Inhibition rates of tumor growth (%) (A549 lung cancer cells; 0.01 pmol/CAM): 16.2 ± 20.4%
Inhibition rates of angiogenesis (%) (A549 lung cancer cells; 0.1 pmol/CAM): 25.1 ± 2.8 %
Inhibition rates of tumor growth (%) (A549 lung cancer cells; 0.1 pmol/CAM): 23.4 ± 9.3%
Inhibition rates of angiogenesis (%) (A549 lung cancer cells; 1.0 pmol/CAM): 36.2 ± 1.9 %
Inhibition rates of tumor growth (%) (A549 lung cancer cells; 1.0 pmol/CAM): 26.8 ± 4.9%
Inhibitory rates (%) [1]: 74.6 ± 8.5 %

O=C(NC(Cc1ccccc1)C(=O)NC(Cc1ccccc1)C(=O)CF)OCc1ccccc1 (stereo not drawn) [Z-FF-FMK] (Cbz-Phe-Phe-CH2F; configuration not given here)
Inhibition rates (%) (MDA-MB-231 cells; 0.04 μM, MDA-MB-231 invasion, 5% FBS, 18 hours): 3.42 ± 2.08%
Inhibition rates (%) (MDA-MB-231 cells; 0.2 μM, MDA-MB-231 invasion, 5% FBS, 18 hours): 6.97 ± 2.35%
Inhibition rates (%) (MDA-MB-231 cells; [2]): 10.16 ± 2.16 %

CC(C)C[C@H](NC(=O)[C@H](Cc1ccccc1)NC(=O)OCc1ccccc1)C(=O)C=O [Z-FL-COCHO]
Inhibition rates (%) (MDA-MB-231 cells; 0.4 nM, MDA-MB-231 invasion, 5% FBS, 18 hours): 34.36 ± 3.00 %
Inhibition rates (%) (MDA-MB-231 cells; 2 nM, MDA-MB-231 invasion, 5% FBS, 18 hours): 44.67 ± 2.61 %
Inhibition rates (%) (MDA-MB-231 cells; 10 nM, MDA-MB-231 invasion, 5% FBS, 18 hours): 50.12 ± 2.76 %
invasion of MDA-MB-231 cells (in words) (MDA-MB-231 cells): decreased invasion of the cells
